Experimental data reported in patent US8642609B2, “Modulators of ATP-binding cassette transporters” (Vertex Pharmaceuticals Incorporated, priority 2003, dated 2014).

Molecular target: T1, ΔF508-CFTR (Homo sapiens, UniProt P13569, DEL508-508)
T1 construct: expressed in transfected cells
Experiment: Membrane potential optical assay (FRET/VIPR), identification of correction compounds
Type: cell-based
Conditions: for Emax: relative efficacy
Summary of the method: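 NIH3T3 cells stably expressing ΔF508-CFTR incubated 16 hrs at 37° C in serum-free medium with test compound; 27° C incubation as positive control. CFTR then activated with 10 μM forskolin plus 20 μM genistein in Cl^−-free medium; depolarization read by DiSBAC2(3)/CC2-DMPE FRET on VIPR.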

T1 sequence (P13569 with tags, fused parts or gaps DEL508-508): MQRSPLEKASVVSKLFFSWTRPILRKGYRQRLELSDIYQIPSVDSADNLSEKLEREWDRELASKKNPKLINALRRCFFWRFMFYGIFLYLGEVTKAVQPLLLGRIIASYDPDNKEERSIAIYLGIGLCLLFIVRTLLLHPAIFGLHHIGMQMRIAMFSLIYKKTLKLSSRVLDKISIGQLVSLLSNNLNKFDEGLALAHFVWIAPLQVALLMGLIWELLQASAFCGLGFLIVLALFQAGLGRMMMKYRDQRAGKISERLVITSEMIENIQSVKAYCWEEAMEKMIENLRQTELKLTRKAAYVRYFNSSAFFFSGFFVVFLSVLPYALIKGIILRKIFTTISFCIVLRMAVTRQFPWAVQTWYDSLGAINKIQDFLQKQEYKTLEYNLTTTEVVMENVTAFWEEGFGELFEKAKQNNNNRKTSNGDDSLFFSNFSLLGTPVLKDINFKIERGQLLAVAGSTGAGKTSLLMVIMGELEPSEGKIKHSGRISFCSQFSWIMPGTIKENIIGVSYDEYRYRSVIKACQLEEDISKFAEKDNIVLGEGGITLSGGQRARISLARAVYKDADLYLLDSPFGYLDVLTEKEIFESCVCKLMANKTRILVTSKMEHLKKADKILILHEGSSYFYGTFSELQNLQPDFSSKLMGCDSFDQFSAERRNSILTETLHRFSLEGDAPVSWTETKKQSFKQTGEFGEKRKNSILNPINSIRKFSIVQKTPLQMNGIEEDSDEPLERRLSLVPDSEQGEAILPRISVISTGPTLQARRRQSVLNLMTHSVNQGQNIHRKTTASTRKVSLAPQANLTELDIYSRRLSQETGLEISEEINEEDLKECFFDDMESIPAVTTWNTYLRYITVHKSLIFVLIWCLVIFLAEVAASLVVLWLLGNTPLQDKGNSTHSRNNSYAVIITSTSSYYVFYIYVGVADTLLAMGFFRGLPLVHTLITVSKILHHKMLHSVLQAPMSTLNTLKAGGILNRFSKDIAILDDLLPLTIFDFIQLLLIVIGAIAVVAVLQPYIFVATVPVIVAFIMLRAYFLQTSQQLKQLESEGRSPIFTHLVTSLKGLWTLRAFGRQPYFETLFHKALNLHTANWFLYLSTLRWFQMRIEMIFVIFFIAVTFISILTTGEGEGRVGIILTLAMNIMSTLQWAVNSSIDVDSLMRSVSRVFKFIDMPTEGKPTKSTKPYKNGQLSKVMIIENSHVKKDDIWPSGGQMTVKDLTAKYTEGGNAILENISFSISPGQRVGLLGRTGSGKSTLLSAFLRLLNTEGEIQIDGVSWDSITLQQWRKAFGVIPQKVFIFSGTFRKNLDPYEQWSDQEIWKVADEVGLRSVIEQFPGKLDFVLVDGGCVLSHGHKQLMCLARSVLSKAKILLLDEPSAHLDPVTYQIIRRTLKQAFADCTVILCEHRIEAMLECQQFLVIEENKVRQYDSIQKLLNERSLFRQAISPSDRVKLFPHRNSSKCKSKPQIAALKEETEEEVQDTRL

COc1ccc(S(=O)(=O)N2CCN(C(C)c3nc(C(C)C)c4ccccc4n3)CC2)cc1 (stereo not drawn) [compound 310]
EC50: < 10 µM | Emax: 25 to 100%

COc1ccc(S(=O)(=O)N2CCN(C(C)c3nc(N4CCCCC4)c4ccccc4n3)CC2)cc1 (stereo not drawn) [compound 302]
EC50: < 10 µM | Emax: > 100%

CNc1nc(C(C)N2CCN(S(=O)(=O)c3ccc(Br)cc3)CC2)nc2ccccc12 (stereo not drawn) [compound 219]
EC50: 25 to 60 µM | Emax: 25 to 100%

CCCn1c(C(C)N2CCN(S(=O)(=O)c3ccc(Cl)cc3)CC2)nc2ccccc2c1=O (stereo not drawn) [compound 26]
EC50: < 10 µM | Emax: > 100%

CC(c1nc2ccc(C#N)cc2c(=O)n1C)N1CCN(S(=O)(=O)c2ccccc2)CC1 (stereo not drawn) [compound 123]
EC50: 10 to 25 µM | Emax: < 25%

COc1ccc(C(=O)N2CCN(C(C)c3nc4ccccc4c(=O)n3C)CC2)cc1 (stereo not drawn) [compound 81]
EC50: 25 to 60 µM | Emax: < 25%

Cc1cccc(C(=O)N2CCN(C(C)c3nc4ccc(Cl)cc4c(=O)n3C)CC2)c1 (stereo not drawn) [compound 59]
EC50: 25 to 60 µM | Emax: 25 to 100%

COc1ccc(S(=O)(=O)N2CCN(C(C)c3nc(N4CCC(C(=O)O)CC4)c4ccccc4n3)CC2)cc1 (stereo not drawn) [compound 370]
EC50: 25 to 60 µM | Emax: < 25%

COc1ccc(NC(=O)N2CCN(C(C)c3nc4ccccc4c(=O)n3C)CC2)c(OC)c1 (stereo not drawn) [compound 8]
EC50: 25 to 60 µM | Emax: < 25%

CC(NC1CCNCC1)c1nc2ccccc2c(=O)n1C (stereo not drawn) [compound 179]
EC50: 25 to 60 µM | Emax: < 25%

CCCn1c(CN2CCN(S(=O)(=O)c3ccc(OC)cc3)CC2)nc2ccccc2c1=O [compound 150]
EC50: 10 to 25 µM | Emax: 25 to 100%

CC(c1nc2ccc(Br)cc2c(=O)n1C)N1CCN(S(=O)(=O)c2ccccc2)CC1 (stereo not drawn) [compound 114]
EC50: 10 to 25 µM | Emax: 25 to 100%

CC(c1nc2ccc(Cl)cc2c(=O)n1C)N1CCN(S(=O)(=O)Cc2ccccc2)CC1 (stereo not drawn) [compound 86]
EC50: 10 to 25 µM | Emax: < 25%

CSc1ccc(S(=O)(=O)N2CCN(C(C)c3nc4ccccc4c(=O)n3C)CC2)cc1 (stereo not drawn) [compound 350]
EC50: 25 to 60 µM | Emax: < 25%

CC(c1nc2ccccc2c(=O)n1C)N(CCCNS(=O)(=O)c1ccc(Br)cc1)S(=O)(=O)c1ccc(Br)cc1 (stereo not drawn) [compound 207]
EC50: < 10 µM | Emax: 25 to 100%

CC(c1nc(OC2CCCC2)c2ccccc2n1)N1CCN(S(=O)(=O)c2ccc(Cl)cc2)CC1 (stereo not drawn) [compound 231]
EC50: < 10 µM | Emax: > 100%

COc1ccc(S(=O)(=O)N2CC3CC2CN3C(C)c2nc3ccccc3c(=O)n2C)cc1 (stereo not drawn) [compound 175]
EC50: 25 to 60 µM | Emax: < 25%

CCCn1c(C(C)N2CCN(C(=O)c3ccc4ccccc4c3)CC2)nc2ccccc2c1=O (stereo not drawn) [compound 30]
EC50: 25 to 60 µM | Emax: 25 to 100%

COc1ccc(S(=O)(=O)N2CCN(C(C)c3nc(OC4CCC(C)C(C)C4)c4ccccc4n3)CC2)cc1 (stereo not drawn) [compound 348]
EC50: < 10 µM | Emax: > 100%

COc1ccc(S(=O)(=O)N2CCC(C(C)c3nc(OC4CCCCC4)c4ccccc4n3)CC2)cc1 (stereo not drawn) [compound 404]
EC50: < 10 µM | Emax: > 100%

CCOC(=O)c1cnc(C(C)N2CCN(S(=O)(=O)c3ccc(OC)cc3)CC2)nc1N1CCCCC1 (stereo not drawn) [compound 353]
EC50: < 10 µM | Emax: 25 to 100%

CCNc1nc(C(C)N2CCN(S(=O)(=O)c3ccc(Br)cc3)CC2)nc2ccccc12 (stereo not drawn) [compound 221]
EC50: 25 to 60 µM | Emax: 25 to 100%

COc1ccc(S(=O)(=O)N(C[C@@H]2CCCCN2S(=O)(=O)c2ccc(OC)cc2)C(C)c2nc3ccccc3c(=O)n2C)cc1 (stereo partly drawn) [compound 203]
EC50: 25 to 60 µM | Emax: < 25%

CC(c1nc2ccc(Br)cc2c(=O)n1C)N1CCN(S(=O)(=O)c2ccc(Cl)cc2)CC1 (stereo not drawn) [compound 117]
EC50: 10 to 25 µM | Emax: 25 to 100%

CC(c1nc2cc(Cl)ccc2c(=O)n1C)N1CCN(S(=O)(=O)c2ccc(C(F)(F)F)cc2)CC1 (stereo not drawn) [compound 98]
EC50: < 10 µM | Emax: 25 to 100%

COc1ccc(S(=O)(=O)N2CCN(C(C)c3nc(N4CC[C@H](O)C4)c4ccccc4n3)CC2)cc1 (stereo partly drawn) [compound 318]
EC50: 25 to 60 µM | Emax: 25 to 100%

CCCC(c1nc2ccccc2c(=O)n1C)N1CCN(S(=O)(=O)c2ccc(OC)cc2)CC1 (stereo not drawn) [compound 340]
EC50: < 10 µM | Emax: > 100%

CC(NCCN(C)S(=O)(=O)c1ccc(Cl)cc1)c1nc2ccccc2c(=O)n1C (stereo not drawn) [compound 212]
EC50: 25 to 60 µM | Emax: < 25%

Cc1cccc(CC(=O)N2CCN(C(C)c3nc4cc(Cl)ccc4c(=O)n3C)CC2)c1 (stereo not drawn) [compound 113]
EC50: 10 to 25 µM | Emax: < 25%

CCOC(=O)C1CCN(c2nc(C(C)N3CCN(S(=O)(=O)c4ccc(OC)cc4)CC3)nc3ccccc23)CC1 (stereo not drawn) [compound 322]
EC50: < 10 µM | Emax: > 100%

COc1ccc(S(=O)(=O)N2CCN(C(C)c3nc4ccc(Cl)cc4c(=O)n3C)CC2)cc1OC (stereo not drawn) [compound 72]
EC50: 10 to 25 µM | Emax: 25 to 100%

CC(c1nc(N2CCCCC2)c2ccccc2n1)N1CCN(S(=O)(=O)c2ccc(Cl)cc2)CC1 (stereo not drawn) [compound 237]
EC50: < 10 µM | Emax: > 100%

CC(c1nc2ccccc2c(=O)n1C)N1CCN(C(=O)c2cccc(Cl)c2)CC1 (stereo not drawn) [compound 75]
EC50: 25 to 60 µM | Emax: < 25%

CC(c1nc2ccccc2c(=O)n1C)N1CCN(S(=O)(=O)c2c(Cl)nc3sccn23)CC1 (stereo not drawn) [compound 268]
EC50: 25 to 60 µM | Emax: < 25%

CC(c1nc2ccccc2c(=O)n1C)N1CCN(S(=O)(=O)c2ccc(C(N)=O)cc2)CC1 (stereo not drawn) [compound 291]
EC50: 25 to 60 µM | Emax: < 25%

COc1ccc(S(=O)(=O)N2CCC(C(C)c3nc4ccccc4c(=O)[nH]3)CC2)cc1 (stereo not drawn) [compound 405]
EC50: 10 to 25 µM | Emax: 25 to 100%

CNc1nc(C(C)N2CCN(S(=O)(=O)c3ccc(OC)cc3)CC2)nc2ccccc12 (stereo not drawn) [compound 192]
EC50: 25 to 60 µM | Emax: 25 to 100%

CC(c1nc2ccc(C(N)=O)cc2c(=O)n1C)N1CCN(S(=O)(=O)c2ccc(Cl)cc2)CC1 (stereo not drawn) [compound 157]
EC50: 25 to 60 µM | Emax: 25 to 100%

CCn1c(C(C)N2CCN(S(=O)(=O)c3cccc4ccccc34)CC2)nc2ccc(Cl)cc2c1=O (stereo not drawn) [compound 35]
EC50: < 10 µM | Emax: 25 to 100%

COc1ccc(S(=O)(=O)N2CCN(C(C)c3nc(N4CCC(CO)CC4)c4ccccc4n3)CC2)cc1 (stereo not drawn) [compound 347]
EC50: 25 to 60 µM | Emax: 25 to 100%

CC(c1nc2ccc(N)cc2c(=O)n1C)N1CCN(S(=O)(=O)c2ccc(Br)cc2)CC1 (stereo not drawn) [compound 146]
EC50: < 10 µM | Emax: > 100%

Cc1ccccc1C(=O)N1CCN(C(C)c2nc3ccc(Cl)cc3c(=O)n2C)CC1 (stereo not drawn) [compound 15]
EC50: 10 to 25 µM | Emax: 25 to 100%

COc1ccc(S(=O)(=O)N2CCN(C(C)c3nc(N4CC=CC4)c4ccccc4n3)CC2)cc1 (stereo not drawn) [compound 391]
EC50: 10 to 25 µM | Emax: > 100%

CNc1nc(C(C)N2CCN(S(=O)(=O)c3ccc(Cl)cc3)CC2)nc2ccccc12 (stereo not drawn) [compound 232]
EC50: 25 to 60 µM | Emax: 25 to 100%

CC(c1nc2ccccc2c(=O)n1C)N1CCN(S(=O)(=O)c2cccc3nonc23)CC1 (stereo not drawn) [compound 264]
EC50: 25 to 60 µM | Emax: < 25%

CC(c1nc2ccccc2c(=O)n1C)N(CCNS(=O)(=O)c1ccc(Cl)cc1)S(=O)(=O)c1ccc(Cl)cc1 (stereo not drawn) [compound 198]
EC50: 25 to 60 µM | Emax: < 25%

CC(c1nc2ccccc2c(=O)n1C)N1CCN(S(=O)(=O)c2cccc(C(=O)O)c2)CC1 (stereo not drawn) [compound 246]
EC50: 25 to 60 µM | Emax: < 25%

COc1ccc(S(=O)(=O)N2CCN(C(C)c3nc4ccc(C#N)cc4c(=O)n3C)CC2)cc1 (stereo not drawn) [compound 124]
EC50: 10 to 25 µM | Emax: 25 to 100%

CC(c1nc2ccccc2c(=O)n1C)N1CCN(S(=O)(=O)N(C)C)CC1 (stereo not drawn) [compound 292]
EC50: 25 to 60 µM | Emax: < 25%

COc1ccc(S(=O)(=O)N2CCN(C(C)c3nc(Oc4ccncc4)c4ccccc4n3)CC2)cc1 (stereo not drawn) [compound 297]
EC50: < 10 µM | Emax: 25 to 100%

COc1ccc(C(=O)N2CCN(C(C)c3nc4ccccc4c(=O)n3C)CC2)cc1OC (stereo not drawn) [compound 76]
EC50: 10 to 25 µM | Emax: < 25%

Cc1cccc(C(=O)N2CCN(C(C)c3nc4cc(Cl)ccc4c(=O)n3C)CC2)c1 (stereo not drawn) [compound 119]
EC50: 10 to 25 µM | Emax: 25 to 100%

COc1ccc(S(=O)(=O)N2CCN(C(C)c3nc4ccccc4c(=O)n3CC(C)(C)C)CC2)cc1 (stereo not drawn) [compound 332]
EC50: 25 to 60 µM | Emax: 25 to 100%

COc1ccc(S(=O)(=O)N2CCN(C(C)c3nc(OC4CCC(O)CC4)c4ccccc4n3)CC2)cc1 (stereo not drawn) [compound 343]
EC50: 25 to 60 µM | Emax: 25 to 100%

CC(NC1CCN(S(=O)(=O)c2ccc(Cl)cc2)C1)c1nc2ccccc2c(=O)n1C (stereo not drawn) [compound 225]
EC50: 25 to 60 µM | Emax: < 25%

CC(c1nc2ccccc2c(=O)n1C)N1CCN(C(=O)c2ccc(Cl)cc2)CC1 (stereo not drawn) [compound 53]
EC50: 25 to 60 µM | Emax: 25 to 100%

COc1ccc(S(=O)(=O)N2CCN(C(C)c3nc4ccc(F)cc4c(=O)[nH]3)CC2)cc1 (stereo not drawn) [compound 377]
EC50: 25 to 60 µM | Emax: 25 to 100%

CCc1nc2cccc(Cl)c2c(=O)n1C [compound 102]
EC50: 25 to 60 µM | Emax: < 25%

COc1ccc(S(=O)(=O)N2CCN(C(C)c3nc4ccc(C(N)=O)cc4c(=O)n3C)CC2)cc1 (stereo not drawn) [compound 143]
EC50: 25 to 60 µM | Emax: 25 to 100%

Cc1cccc(NC(=O)N2CCN(C(C)c3nc4ccc(Cl)cc4c(=O)n3C)CC2C)c1 (stereo not drawn) [compound 1]
EC50: 25 to 60 µM | Emax: 25 to 100%

CC(c1nc2ccccc2c(=O)n1C)N1CCN(S(=O)(=O)c2ccccc2C#N)CC1 (stereo not drawn) [compound 259]
EC50: 25 to 60 µM | Emax: < 25%

CCC(c1nc2ccccc2c(=O)n1C)N1CCN(S(=O)(=O)c2ccc(OC)cc2)CC1 (stereo not drawn) [compound 337]
EC50: 10 to 25 µM | Emax: > 100%

COc1ccc(S(=O)(=O)N2CCN(C(C)c3nc4ccc(OC)cc4c(=O)n3C)CC2)cc1 (stereo not drawn) [compound 135]
EC50: 10 to 25 µM | Emax: 25 to 100%
